Data on 5 compounds can be found in PMC2442655, “Structure-Activity Relationship and Substrate-Dependent Phenomena in Effects of Ginsenosides on Activities of Drug-Metabolizing P450 Enzymes” (PLoS ONE, 2008).

Data set [1] has as its target T1, CYP1A2 (Homo sapiens, UniProt P05177).
T1 sequence (P05177 1-516): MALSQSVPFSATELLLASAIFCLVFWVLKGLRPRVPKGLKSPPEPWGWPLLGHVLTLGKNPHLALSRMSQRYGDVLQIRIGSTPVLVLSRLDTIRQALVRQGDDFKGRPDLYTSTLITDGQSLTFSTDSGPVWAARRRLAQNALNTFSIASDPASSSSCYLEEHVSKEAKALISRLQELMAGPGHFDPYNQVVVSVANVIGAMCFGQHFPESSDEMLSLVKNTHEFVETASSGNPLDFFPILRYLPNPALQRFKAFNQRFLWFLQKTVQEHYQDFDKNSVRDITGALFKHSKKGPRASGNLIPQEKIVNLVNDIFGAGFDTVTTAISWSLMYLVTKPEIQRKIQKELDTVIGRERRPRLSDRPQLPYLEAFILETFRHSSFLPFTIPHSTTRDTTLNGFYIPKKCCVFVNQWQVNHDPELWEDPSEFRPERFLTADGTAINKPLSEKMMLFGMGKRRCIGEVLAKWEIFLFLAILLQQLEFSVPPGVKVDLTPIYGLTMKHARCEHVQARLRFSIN
The experiment in a line: Vivid CYP1A2 blue fluorescent assay. Particulars: for IC50: IC50 CYP1A2 blue, cDNA-expressed enzyme, Vivid blue substrate 3 µM; for inhibition at 30 min, 50 µM: human. As to the method: (§1) The inhibition of the catalytic activities of cDNA-expressed human P450 enzymes by ginsenosides was determined using Vivid® P450 screening kits (CYP1A2 blue, CYP2C9 red, CYP2C19 blue, CYP2D6 blue, CYP3A4 green and red) according to the manufacturer's instructions (Invitrogen Corporation; Carlsbad, CA, USA).
(§2) In brief, the assays were carried out in Costar® black-wall 96-well plates with ultra thin clear bottoms (Corning Inc, Corning, NY, USA) in a kinetic assay mode. Stock solutions (10 mM) of ginsenosides in methanol were prepared and diluted to various concentrations (2.5× 100, 50, 10, 5, 1 µM). For each well, 40 µL of solution of test compounds or vehicle was incubated with 50 µL pre-mixture (mixture of BACULOSOMES® reagent, regeneration system and reaction buffer) at 37°C for 20 min. The reaction was initiated by adding 10 µL of a mixture of substrate and NADP^+ per well with a respective concentration of Vivid® substrate (Table 1). The plate was read immediately for fluorescence changes every 0.5 min at 37°C for 30 min using a FlexStation II384 fluorometric plate reader (Molecular Devices, Sunnyvale, CA, USA) with respective excitation and emission wavelengths for each P450 enzyme (Table 1). The final methanol volume in the reaction was less than or equal to 1%.

Data set [2] addresses T2, CYP2C9 (Homo sapiens, UniProt P11712).
T2 construct: purchased Invitrogen Corporation
Put plainly: Vivid CYP2C9 red fluorescent assay. The data set is classed as in vitro ADME.
Protocol: In brief, the assays were carried out in Costar® black-wall 96-well plates with ultra thin clear bottoms (Corning Inc, Corning, NY, USA) in a kinetic assay mode. […] For each well, 40 µL of solution of test compounds or vehicle was incubated with 50 µL pre-mixture (mixture of BACULOSOMES® reagent, regeneration system and reaction buffer) at 37°C for 20 min. […] The final methanol volume in the reaction was less than or equal to 1%.

Data set [3] addresses T3, CYP3A4 (Homo sapiens, UniProt P08684). The experiment in a line: Carbamazepine 10,11-epoxidation in human liver microsomes. Particulars: for Effect on in vitro CBZ metabolism: 1-50 µM. Here is the method:
(§3) The effects of the ginsenosides and sapogenins on the in vitro metabolism of CBZ were evaluated using HLM. […] Vehicle control samples were treated with methanol at a final concentration of 0.5% instead of test compounds. The reaction was initiated by adding 60 µL pre-warmed NADPH-regenerating system (50 µL BD solution A and 10 µL BD solution B). After incubation at 37°C for 30 min, the reaction system was quenched by adding 0.4 ml ice-cold acetonitrile, which was mixed well and centrifuged at 4°C (10,000 g, 10 min). The supernatant (0.4 ml) was collected, mixed with 0.8 ml acetonitrile and then centrifuged at 4°C (10,000 g, 10 min). The supernatant (30 µL) was diluted with 970 µL ddH2O and 50 µL of the mixture was injected onto the high performance liquid chromatography/tandem mass spectrometry (HPLC-MS-MS) system for analysis. […] Microsomal studies using NF as the substrate were conducted as described above for CBZ with several modifications. The NF concentration was 1 µM. The supernatant (0.4 ml) of the reaction system after quenching and centrifugation was also combined with 0.8 ml acetonitrile and centrifuged, and 10 µL of the resultant supernatant was directly injected onto the HPLC-MS-MS system for analysis.
(§4) The HPLC was performed using an Agilent 1200 system (Palo Alto, CA, USA) equipped with a binary pump and an auto-sampler. […] The elution lasted for 8 min.
(§5) The MS analysis was performed on a 4000Q Trap™ triple quadrupole mass spectrometer (Applied Biosystems/MDS Sciex Instruments, Concord, Ontario, Canada) equipped with a Turbo V ion source (TurboIonSpray™ probe was used), a Dell™ computer, and Analyst™ software. Electrospray ionization in the positive mode was employed to analyze CBZ-E and ONF, respectively. The compound parameters for CBZ-E and ONF were: declustering potential, 65 and 95 units, and collision energy, 39 and 40 units, respectively. The ion source parameters were as follows: curtain gas, 15 units; collision gas, medium; ion spray voltage, 4000 and 5000 V, respectively; temperature, 650 and 350°C, respectively; ion source gas 1, 60.0 and 65.0 units, respectively; ion source gas 2, 45.0 units.
A general note: Liver microsomes are vesicles of endoplasmic reticulum, rich in cytochrome P450 enzymes.

Data set [4] addresses CYP2D6 (Homo sapiens, UniProt P10635). The experiment in a line: Vivid CYP2D6 blue fluorescent assay. Conditions: for inhibition at 30 min, 50 µM: human. As to the method:
as §1, §2

In data set [5] the target is T3, CYP3A4. The experiment in a line: Nifedipine oxidation in human liver microsomes. Conditions: for Effect on NF in vitro metabolism: low concentrations (1∼10 µM); for Effect on NF metabolism: 1-50 µM. Here is the method:
as §3, §4, §5

The target of data set [6] is CYP2C19 (Homo sapiens, UniProt P33261). The experiment in a line: Vivid CYP2C19 blue fluorescent assay. Here is the method:
as §1, §2

Data set [7] has as its target T3, CYP3A4. The experiment in a line: Vivid CYP3A4 green fluorescent assay. As to the method: as §1, §2
Data set [8] has as its target T3, CYP3A4. The experiment in a line: Vivid CYP3A4 red fluorescent assay. Conditions: for Effect on CYP3A4 catalytic activity, Vivid red assay: red substrate. Here is the method: as §1, §2
Where [9] appears, read: cDNA-expressed enzyme, Vivid red substrate 2 µM, maximum concentration 50 µM, read-out: IC50 CYP2C9 red.
Setting [10] is: recombinant (cDNA-expressed) CYP2D6 BACULOSOMES, probe Vivid blue substrate 10 µM.
[11] abbreviates: recombinant (cDNA-expressed) CYP1A2 BACULOSOMES, probe Vivid blue substrate 3 µM.

Structures are written as SMILES. Read-outs that look alike come from different tables or passages of the source.

Sequence of CYP2C19 (P33261 whole entry): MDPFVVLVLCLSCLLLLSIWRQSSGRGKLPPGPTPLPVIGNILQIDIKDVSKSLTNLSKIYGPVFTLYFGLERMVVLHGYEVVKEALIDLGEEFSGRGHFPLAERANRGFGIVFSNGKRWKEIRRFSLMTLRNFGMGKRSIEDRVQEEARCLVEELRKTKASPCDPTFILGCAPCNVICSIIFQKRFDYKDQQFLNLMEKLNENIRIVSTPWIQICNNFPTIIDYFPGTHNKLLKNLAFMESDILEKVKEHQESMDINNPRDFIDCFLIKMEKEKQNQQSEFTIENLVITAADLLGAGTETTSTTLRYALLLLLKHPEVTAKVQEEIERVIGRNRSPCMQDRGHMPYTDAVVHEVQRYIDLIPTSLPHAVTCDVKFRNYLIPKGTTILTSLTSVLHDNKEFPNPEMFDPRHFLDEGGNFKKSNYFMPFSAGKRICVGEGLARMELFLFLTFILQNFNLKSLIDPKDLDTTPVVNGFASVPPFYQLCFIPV
T2 sequence (P11712 whole entry): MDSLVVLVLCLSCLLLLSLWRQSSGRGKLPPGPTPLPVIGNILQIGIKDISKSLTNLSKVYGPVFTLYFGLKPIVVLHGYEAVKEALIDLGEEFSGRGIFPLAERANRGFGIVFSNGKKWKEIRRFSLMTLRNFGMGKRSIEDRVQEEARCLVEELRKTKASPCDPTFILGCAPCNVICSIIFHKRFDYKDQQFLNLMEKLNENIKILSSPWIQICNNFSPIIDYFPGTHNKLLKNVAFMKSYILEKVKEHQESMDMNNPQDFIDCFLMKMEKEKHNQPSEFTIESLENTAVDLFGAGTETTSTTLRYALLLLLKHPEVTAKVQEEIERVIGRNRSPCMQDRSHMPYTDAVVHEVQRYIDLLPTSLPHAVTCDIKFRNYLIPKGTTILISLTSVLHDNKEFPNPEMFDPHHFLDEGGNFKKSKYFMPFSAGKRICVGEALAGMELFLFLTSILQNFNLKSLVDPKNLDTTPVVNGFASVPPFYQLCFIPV
Sequence of CYP2D6 (P10635 whole entry): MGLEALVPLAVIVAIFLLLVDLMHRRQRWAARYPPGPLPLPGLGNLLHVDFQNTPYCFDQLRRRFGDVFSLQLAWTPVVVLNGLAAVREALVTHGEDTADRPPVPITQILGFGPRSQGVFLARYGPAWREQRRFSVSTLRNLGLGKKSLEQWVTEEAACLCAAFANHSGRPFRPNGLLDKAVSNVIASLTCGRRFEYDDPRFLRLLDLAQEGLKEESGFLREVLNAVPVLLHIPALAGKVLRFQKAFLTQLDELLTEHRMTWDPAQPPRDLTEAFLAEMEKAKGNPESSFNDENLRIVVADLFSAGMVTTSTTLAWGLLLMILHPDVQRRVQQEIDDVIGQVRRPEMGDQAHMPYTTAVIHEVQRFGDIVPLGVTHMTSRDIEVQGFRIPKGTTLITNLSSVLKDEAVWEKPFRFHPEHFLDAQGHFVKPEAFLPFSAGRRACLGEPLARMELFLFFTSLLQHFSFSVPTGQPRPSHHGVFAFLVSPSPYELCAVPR
T3 sequence (P08684 whole entry): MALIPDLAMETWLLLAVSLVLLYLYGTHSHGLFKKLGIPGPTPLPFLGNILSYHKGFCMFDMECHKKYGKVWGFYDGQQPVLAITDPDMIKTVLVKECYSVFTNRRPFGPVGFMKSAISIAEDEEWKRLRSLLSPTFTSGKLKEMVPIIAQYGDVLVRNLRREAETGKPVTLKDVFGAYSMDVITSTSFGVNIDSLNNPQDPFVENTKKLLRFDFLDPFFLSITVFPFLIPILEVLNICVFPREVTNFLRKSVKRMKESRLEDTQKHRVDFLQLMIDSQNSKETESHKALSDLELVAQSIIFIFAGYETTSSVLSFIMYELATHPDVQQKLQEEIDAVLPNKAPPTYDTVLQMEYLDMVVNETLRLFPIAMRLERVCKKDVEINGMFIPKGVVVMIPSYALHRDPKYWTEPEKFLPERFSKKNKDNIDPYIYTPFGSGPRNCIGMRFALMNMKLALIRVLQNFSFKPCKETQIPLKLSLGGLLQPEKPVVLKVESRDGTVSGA

Take `CC(C)=CCC[C@](C)(O)[C@H]1CC[C@]2(C)[C@@H]1[C@H](O)C[C@@H]1[C@@]3(C)CC[C@H](O)C(C)(C)[C@@H]3CC[C@]12C` [PPD, protopanaxadiol]: the IC50 (usually the concentration that inhibits the measured activity by half) in data set [1] was 86.6 µM; in data set [2] (setting [9]) it was 8 µM; in data set [4] it was greater than 50 µM; in data set [6], 52.6 µM; in data set [7], 9.3 µM; in data set [8] it was 43.1 µM. Also, in data set [3] (10 µM), the “Activation of CBZ metabolism (fold)” value is “about five-fold”. Besides, the “Effect on in vitro CBZ metabolism” value in data set [3] is on record as “substantially activated”. The inhibition (usually the drop in the measured response relative to a control, in per cent) at 30 min, 50 µM in data set [4] (setting [10]) amounted to 25.9%. The “Effect on NF in vitro metabolism” value in data set [5] is listed as “weak activation effect”. The “Effect on CYP3A4 catalytic activity, Vivid red assay” value (“Effect on CYP3A4 catalytic activity” for short) in data set [8] is “inhibited CYP3A4 in a dose-dependent manner”.
As for `CC(C)(O)CCC[C@@](C)(O)[C@H]1CC[C@]2(C)[C@@H]1[C@H](O)C[C@@H]1[C@@]3(C)CC[C@H](O)C(C)(C)[C@@H]3CC[C@]12C` [20(R)-25-OH-PPD, 20(R)-dammarane-3β, 12β, 20, 25-tetrol], the IC50 was greater than 100 µM in data set [1]; 7.6 µM in data set [2] (setting [9]); greater than 50 µM in data set [4]; 69.1 µM in data set [6]; 25.6 µM in data set [7]. The inhibition at 30 min, 50 µM in data set [1] (setting [11]) turned out to be 22.8%; in data set [4] (setting [10]), 31.8%. Moreover, the “Effect on in vitro CBZ metabolism” value in data set [3] is listed as “substantially activated”. Besides, the “Effect on NF metabolism” value in data set [5] is given as “negligible”. The “Activation of CYP3A4, Vivid red assay (fold)” value in data set [8] (10 µM) is reported as “about two-fold”. Further, the “Effect on CYP3A4 catalytic activity” value in data set [8] is reported as “activated the catalytic activity of CYP3A4”.
For `O=c1cc(-c2ccccc2)oc2c1ccc1ccccc12` [α-naphthoflavone, reference compound], the “Increase of CBZ metabolism vs vehicle control” value in data set [3] (10 µM) came out at 772%. Also, the “Effect on in vitro NF metabolism” value in data set [5] (10 µM) is “did not significantly alter”.
For `COC(C)(C)CCC[C@](C)(O)[C@H]1CC[C@]2(C)[C@@H]1[C@H](O)C[C@@H]1[C@@]3(C)CC[C@H](O)C(C)(C)[C@@H]3CC[C@]12C` [25-OCH3-PPD, 20(S)-25-methoxyl-dammarane-3β, 12β, 20-triol], the IC50 in data set [1] was greater than 100 µM; in data set [2] (setting [9]), 7.5 µM; in data set [4] it was greater than 50 µM; in data set [6], 26.5 µM; in data set [7], 17.7 µM; in data set [8], greater than 100 µM. Moreover, the inhibition at 30 min, 50 µM is 4.8% in data set [1] (setting [11]); 12.6% in data set [4] (setting [10]); 25.4% in data set [8] (human, recombinant (cDNA-expressed) CYP3A4 BACULOSOMES, probe Vivid red substrate 3 µM). Besides, the “Effect on in vitro CBZ metabolism” value in data set [3] is recorded as “substantially activated”. Also, the “Effect on NF metabolism” value in data set [5] is “negligible”. Moreover, the “Activation of CYP3A4, Vivid red assay” value in data set [8] (10 µM) is reported as “about 20%”. Further, the “Effect on CYP3A4, Vivid red assay” value in data set [8] (high concentrations) is reported as “weakly inhibited”.
Regarding `CC(C)=CCC[C@](C)(O)[C@H]1CC[C@]2(C)[C@@H]1[C@H](O)C[C@@H]1[C@@]3(C)CC[C@H](O[C@@H]4O[C@H](CO)[C@@H](O)[C@H](O)[C@H]4O)C(C)(C)[C@@H]3CC[C@]12C` [Rh2], the IC50 in data set [1] was greater than 100 µM; in data set [2] it was 30.9 µM; in data set [4], greater than 50 µM; in data set [6], 49.9 µM; in data set [7], 47 µM; in data set [8] it was 9.8 µM. Further, the inhibition at 30 min, 50 µM in data set [1] worked out at 39.4%; in data set [4] it was 20.3%. Besides, the “Effect on in vitro CBZ metabolism” value in data set [3] was “did not significantly alter”. Moreover, the “Effect on CYP3A4-catalyzed NF oxidation” value in data set [5] (high concentration (50 µM)) is “weakly inhibited”. The “Effect on NF in vitro metabolism” value in data set [5] is “weak activation effect”. Besides, in data set [8], the “Effect on CYP3A4 catalytic activity” value was “inhibited CYP3A4 in a dose-dependent manner”.
